Laboratory results published in US7879887B2, “α-amino acid derivatives and medicaments containing the same as an active ingredient” (Nissan Chemical Industries, Ltd., priority 2006, dated 2011).

How the values were obtained:
[1] = biological target: T1, Aurora A (Homo sapiens, UniProt O14965); test: In vitro kinase assay, Aurora A; type: biochemical; details: recombinant protein (Upstate)
T1 construct: purchased Upstate Inc. 14-511
T1 sequence (O14965 1-403): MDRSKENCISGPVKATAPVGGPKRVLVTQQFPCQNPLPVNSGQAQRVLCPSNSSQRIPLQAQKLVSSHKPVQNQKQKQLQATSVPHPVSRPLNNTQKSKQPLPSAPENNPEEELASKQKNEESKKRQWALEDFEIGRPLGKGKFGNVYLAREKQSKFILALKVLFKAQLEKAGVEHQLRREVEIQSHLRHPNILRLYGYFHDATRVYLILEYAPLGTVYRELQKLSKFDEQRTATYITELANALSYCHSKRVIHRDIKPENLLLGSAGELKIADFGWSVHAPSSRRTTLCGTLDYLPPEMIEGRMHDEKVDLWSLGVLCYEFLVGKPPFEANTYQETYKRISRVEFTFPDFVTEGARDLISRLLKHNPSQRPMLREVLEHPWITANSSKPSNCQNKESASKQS
How it was run: (§1)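 Recombinant human enzymes assayed per supplier protocol. IC50 derived with compound-free wells set as 0% inhibition and compound- and enzyme-free wells as 100% inhibition.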

[2] = biological target: T2, CDK1/Cyclin B complex (Homo sapiens, UniProt P06493); test: In vitro kinase assay, CDK1/Cyclin B complex; type: biochemical; details: recombinant protein (Upstate)
T2 construct: purchased Upstate Inc. 14-450
How it was run: as §1

[3] = tested on: breast cancer cell line MDA-MB-231; test: Cell proliferation inhibitory activity, MDA-MB-231; type: cell-based; details: Homo sapiens, 96 h, cells counted 4 days later with Cell Counting Kit-8
Procedure: (§2) Evaluations were carried out using colon carcinoma cell line SW620 (Cat. No. CCL-227), lung carcinoma cell line NCI-H460 (Cat. No. HTB-177), prostate cancer cell line DU 145 (Cat. No. HTB-81), breast cancer cell line MDA-MB-231 (Cat. No. HTB26) and leukemia cell line KG-1a (Cat. No. CCL-246.1) purchased from ATCC, pancreatic cancer cell line MIAPaCa-2 (Cat. No. CRL-1420) purchased from Dainippon Pharmaceutical, and ovarian cancer cell line IGROV1 received from the Netherland Cancer Institute. The cells were cultured under the conditions recommended by the supplier for each cell line, or with respect to IGROV1, according to the method described in Cancer Res. 59: 4559-4563, 1999. Cells suspended in media were added to solutions containing the test substances at various concentrations followed by culturing in a 5% CO2 incubator at 37° C. The numbers of cells were counted 4 days later with the Cell Counting Kit-8. IC50 values were calculated by assigning measured values in the case of not containing a test substance to an inhibition of 0%, and assigning measured values in the case of not containing a test substance or cells to an inhibition of 100%.

[4] = tested on: ovarian cancer cell line IGROV1; test: Cell proliferation inhibitory activity, IGROV1; type: cell-based; details: Homo sapiens, IGROV-1, 96 h, cells counted 4 days later with Cell Counting Kit-8
Procedure: as §2

[5] = tested on: leukemia cell line KG-1a; test: Cell proliferation inhibitory activity, KG-1a; type: cell-based; details: Homo sapiens, 96 h, cells counted 4 days later with Cell Counting Kit-8
How it was run: (§3)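 Read-out: Cell Counting Kit-8 cell counts taken 4 days after cells in medium were added to graded test-substance concentrations. Incubation was at 37° C under 5% CO2. IC50 values were based on vehicle wells set to 0% inhibition and wells lacking compound and cells set to 100%.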

[6] = tested on: pancreatic cancer cell line MIAPaCa-2; test: Cell proliferation inhibitory activity, MIAPaCa-2; type: cell-based; details: Homo sapiens, MIA PaCa-2, 96 h; cells counted 4 days later, Cell Counting Kit-8
Procedure: as §2

[7] = tested on: prostate cancer cell line DU 145; test: Cell proliferation inhibitory activity, DU 145; type: cell-based, human; details: Homo sapiens, 96 h, cells counted 4 days later with Cell Counting Kit-8
How it was run: as §3

[8] = tested on: lung carcinoma cell line NCI-H460; test: Cell proliferation inhibitory activity, NCI-H460; type: cell-based; details: Homo sapiens, 96 h, cells counted 4 days later with Cell Counting Kit-8
How it was run: as §3

T2 sequence (P06493 whole entry): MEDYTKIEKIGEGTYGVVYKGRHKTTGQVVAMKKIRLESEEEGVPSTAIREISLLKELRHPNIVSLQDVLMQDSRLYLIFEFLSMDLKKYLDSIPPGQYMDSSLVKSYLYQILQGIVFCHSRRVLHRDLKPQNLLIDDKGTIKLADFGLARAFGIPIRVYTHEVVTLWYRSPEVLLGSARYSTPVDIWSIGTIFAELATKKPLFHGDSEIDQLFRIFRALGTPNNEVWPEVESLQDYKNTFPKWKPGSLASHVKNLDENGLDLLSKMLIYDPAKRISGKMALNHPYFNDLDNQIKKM
T2 sequence (P14635 whole entry partner): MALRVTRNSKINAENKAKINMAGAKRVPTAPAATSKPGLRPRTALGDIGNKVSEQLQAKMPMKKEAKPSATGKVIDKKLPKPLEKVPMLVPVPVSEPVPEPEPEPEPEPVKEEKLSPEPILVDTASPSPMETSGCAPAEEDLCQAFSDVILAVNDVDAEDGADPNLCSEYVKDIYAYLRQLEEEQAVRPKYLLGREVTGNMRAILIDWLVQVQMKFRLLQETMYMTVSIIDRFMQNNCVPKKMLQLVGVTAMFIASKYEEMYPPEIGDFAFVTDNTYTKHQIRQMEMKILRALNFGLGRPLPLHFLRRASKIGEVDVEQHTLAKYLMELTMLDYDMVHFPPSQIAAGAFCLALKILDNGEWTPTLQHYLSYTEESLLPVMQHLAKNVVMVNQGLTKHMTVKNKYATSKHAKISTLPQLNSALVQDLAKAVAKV

| Compound | IC50 [1] [µM] | IC50 [2] [µM] | IC50 [3] [µM] | IC50 [4] [µM] | IC50 [5] [µM] | IC50 [6] [µM] | IC50 [7] [µM] | IC50 [8] [µM] |
| --- | --- | --- | --- | --- | --- | --- | --- | --- |
| O=C(CNc1ccc(Cl)c(O)c1)Nc1nc2ccc3[nH]ncc3c2s1 [compound 6] | 0.257 | 0.255 | 2.6 | 4.3 | < 0.1 | – | – | – |
| CC(=O)Nc1cc(NCC(=O)Nc2nc3ccc4[nH]ncc4c3s2)ccc1Cl [compound 16] | 0.278 | – | 4.4 | – | < 0.1 | 4.4 | 3.2 | 3.2 |
| CC(C)(Nc1cccc(O)c1)C(=O)Nc1nc2ccc3[nH]ncc3c2s1 [compound 33] | 0.029 | 0.115 | 2 | 2.7 | < 0.1 | 4.5 | 1.7 | 3.6 |
| CC(C)(Nc1ccc(Cl)cc1)C(=O)Nc1nc2ccc3[nH]ncc3c2s1 [compound 35] | 0.428 | – | – | – | < 0.1 | – | 2.5 | – |
| CC(=O)Nc1cc(NC(C)(C)C(=O)Nc2nc3c(C(F)(F)F)cc4[nH]ncc4c3s2)ccc1Cl [compound 53] | 0.227 | 0.42 | 4 | – | 0.3 | 4.7 | 1.5 | 2.4 |
| CNC(=O)c1cc(NC(C)(C)C(=O)Nc2nc3c(C(F)(F)F)cc4[nH]ncc4c3s2)ccc1Cl [compound 55] | 0.185 | 0.073 | 3.2 | 2.7 | < 0.1 | 4.1 | 0.9 | 0.8 |
| CCNC(=O)c1cc(NC(C)(C)C(=O)Nc2nc3c(C(F)(F)F)cc4[nH]ncc4c3s2)ccc1F [compound 58] | – | 0.186 | 4.7 | – | 0.3 | 4 | 0.9 | 1.3 |
| CCNC(=O)c1cc(NC(C)(C)C(=O)Nc2nc3c(C(F)(F)F)cc4[nH]ncc4c3s2)ccc1Cl [compound 60] | 0.163 | 0.073 | 4.5 | – | 0.3 | 4.4 | 0.9 | 1.5 |
| CC(C)(Nc1ccc(Cl)c(C(=O)NC2CC2)c1)C(=O)Nc1nc2c(C(F)(F)F)cc3[nH]ncc3c2s1 [compound 75] | 0.472 | 0.128 | 3.6 | – | < 0.1 | 3.9 | 1.1 | 2 |
| CC(=O)Nc1cc(NC(C)(C)C(=O)Nc2nc3c(C(F)(F)F)cc4[nH]ncc4c3s2)ccc1F [compound 81] | 0.444 | 0.377 | 4.2 | 2.4 | < 0.1 | 4.7 | 1.1 | 1.3 |
| CC(C)(Nc1cccc(S(N)(=O)=O)c1)C(=O)Nc1nc2c(C(F)(F)F)cc3[nH]ncc3c2s1 [compound 82] | 0.014 | 0.02 | 2.1 | 0.9 | < 0.1 | 2.5 | 0.4 | 0.4 |
| CC(C)(Nc1ccc(Cl)c(C(=O)NCC(N)=O)c1)C(=O)Nc1nc2c(C(F)(F)F)cc3[nH]ncc3c2s1 [compound 85] | 0.071 | 0.0018 | 2.5 | 1.8 | < 0.1 | 1.8 | 1.3 | 1.2 |
| CC(C)(Nc1ccc(Cl)c(O)c1)C(=O)Nc1nc2c(C(F)(F)F)cc3[nH]ncc3c2s1 [compound 95] | 0.34 | 0.105 | – | – | 0.1 | 4.6 | 1.1 | 1.2 |
| O=C(Nc1nc2ccc3[nH]ncc3c2s1)C1(Nc2ccc(Cl)cc2)CC1 [compound 117] | 0.317 | 0.358 | 2.5 | 2.7 | < 0.1 | – | 2.2 | 2.8 |
| CCOC(=O)c1cc(NC2(C(=O)Nc3nc4ccc5[nH]ncc5c4s3)CC2)ccc1Cl [compound 118] | 0.236 | – | – | – | < 0.1 | – | – | – |
| CC(=O)Nc1cc(NC2(C(=O)Nc3nc4ccc5[nH]ncc5c4s3)CC2)ccc1F [compound 120] | 0.164 | – | – | 4.8 | < 0.1 | – | 3.3 | 1.9 |
| CCC(=O)Nc1cc(NC2(C(=O)Nc3nc4ccc5[nH]ncc5c4s3)CC2)ccc1F [compound 121] | 0.307 | – | – | 4.8 | < 0.1 | 4.6 | 3.4 | 2.2 |
| CNC(=O)c1cc(NC2(C(=O)Nc3nc4ccc5[nH]ncc5c4s3)CC2)ccc1Cl [compound 126] | 0.058 | 0.145 | – | – | < 0.1 | – | 3.7 | 4.2 |
| CC(=O)Nc1cc(NC(C)(C)C(=O)Nc2nc3ccc4[nH]ncc4c3s2)ccc1Cl [compound 128] | 0.039 | – | 4.6 | 3.5 | < 0.1 | 3.2 | 1.7 | 1.1 |
| CCC(=O)Nc1cc(NC(C)(C)C(=O)Nc2nc3ccc4[nH]ncc4c3s2)ccc1Cl [compound 129] | 0.113 | – | – | 4.8 | < 0.1 | – | 2.6 | 2.7 |
| O=C(Nc1nc2ccc3[nH]ncc3c2s1)C(CO)Nc1ccc(Cl)cc1 (stereo not drawn) [compound 132] | – | 0.379 | 1.9 | 1.4 | < 0.1 | 3.7 | 1.4 | 1.7 |
| CC(C)(Nc1ccc(Cl)c(C(N)=O)c1)C(=O)Nc1nc2c(C(F)(F)F)cc3[nH]ncc3c2s1 [compound 135] | 0.04 | 0.083 | 1.6 | 1.5 | < 0.1 | 4.1 | 0.5 | 0.9 |
| CC(C)(Nc1ccc(Cl)c(C(=O)NCCCC(=O)O)c1)C(=O)Nc1nc2c(C(F)(F)F)cc3[nH]ncc3c2s1 [compound 144] | 0.088 | 0.297 | – | – | – | – | – | – |
